Assay results taken from ChEMBL document CHEMBL1777795, “From benzimidazole to indole-5-carboxamide Thumb Pocket I inhibitors of HCV NS5B polymerase. Part 1: indole C-2 SAR and discovery of diamide derivatives with nanomolar potency in cell-based subgenomic replicons” (Bioorg Med Chem Lett, 2011).

Assays:
[1] = Mean residence time in Sprague-Dawley rat at 10 mg/kg, po; format: ADME, organism-based; set-up: dose 10 mg/kg, route oral; conditions: in vivo
[2] = (§1) Permeability from apical to basolateral side of human Caco2 cells; format: ADME, cell-based, Caco-2; conditions: Caco-2, read-out: permeability
[3] = AUC in Sprague-Dawley rat at 10 mg/kg, po; format: ADME, organism-based; set-up: dose 10 mg/kg, route oral; conditions: plasma
[4] = Cmax in Sprague-Dawley rat at 10 mg/kg, po; format: ADME, organism-based; set-up: dose 10 mg/kg, route oral; conditions: in vivo
[5] = system: Caco-2; test: as §1; format: ADME, cell-based; conditions: caco-2, BLD = below limit of detection

| Compound | Papp A→B [2] [×10⁻⁶ cm/s] | other results |
| --- | --- | --- |
| Cn1c(-c2ccoc2)c(C2CCCCC2)c2ccc(C(=O)NC(C)(C)C(=O)Nc3ccc(/C=C/C(=O)O)cc3)cc21 | 6 | – |
| Cn1c(-c2nccs2)c(C2CCCCC2)c2ccc(C(=O)NC(C)(C)C(=O)Nc3ccc(/C=C/C(=O)O)cc3)cc21 | 8.5 | – |
| Cn1c(-c2cnco2)c(C2CCCCC2)c2ccc(C(=O)NC(C)(C)C(=O)Nc3ccc(/C=C/C(=O)O)cc3)cc21 | 5 | – |
| Cn1c(-c2csc(-c3cccnc3)n2)c(C2CCCCC2)c2ccc(C(=O)NC(C)(C)C(=O)Nc3ccc(/C=C/C(=O)O)cc3)cc21 | 0.2 | – |
| Cn1c(-c2ccc3ncccc3c2)c(C2CCCCC2)c2ccc(C(=O)NC(C)(C)C(=O)Nc3ccc(/C=C/C(=O)O)cc3)cc21 | – | permeability [5]: BLD |
| Cn1c(-c2cccc3cccnc23)c(C2CCCCC2)c2ccc(C(=O)NC(C)(C)C(=O)Nc3ccc(/C=C/C(=O)O)cc3)cc21 | 3.4 | – |
| Cn1c(-c2cccnc2)c(C2CCCCC2)c2ccc(C(=O)NC(C)(C)C(=O)Nc3ccc(/C=C/C(=O)O)cc3)cc21 | 9.4 | – |
| Cn1c(-c2ccncc2)c(C2CCCCC2)c2ccc(C(=O)NC(C)(C)C(=O)Nc3ccc(/C=C/C(=O)O)cc3)cc21 | 0.3 | – |
| Cn1c(-c2cncnc2)c(C2CCCCC2)c2ccc(C(=O)NC(C)(C)C(=O)Nc3ccc(/C=C/C(=O)O)cc3)cc21 | 3.3 | – |

Second part, led by results:

| Papp A→B [2] [×10⁻⁶ cm/s] | Compound | other results |
| --- | --- | --- |
| 16 | Cn1c(-c2ccccn2)c(C2CCCCC2)c2ccc(C(=O)NC(C)(C)C(=O)Nc3ccc(/C=C/C(=O)O)cc3)cc21 | MRT [1]: 0.5 h; AUC [3]: 0.87 µM·h; Cmax [4]: 1230 nM |
| 6.9 | Cc1cccc(-c2c(C3CCCCC3)c3ccc(C(=O)NC(C)(C)C(=O)Nc4ccc(/C=C/C(=O)O)cc4)cc3n2C)n1 | – |
| 16.4 | Cc1ccc(-c2c(C3CCCCC3)c3ccc(C(=O)NC(C)(C)C(=O)Nc4ccc(/C=C/C(=O)O)cc4)cc3n2C)nc1 | – |
| 2.6 | Cc1ccc(-c2c(C3CCCCC3)c3ccc(C(=O)NC(C)(C)C(=O)Nc4ccc(/C=C/C(=O)O)cc4)cc3n2C)cn1 | – |
| 1.5 | Cn1c(-c2cccc(N)n2)c(C2CCCCC2)c2ccc(C(=O)NC(C)(C)C(=O)Nc3ccc(/C=C/C(=O)O)cc3)cc21 | MRT [1]: 3.4 h; AUC [3]: 1.18 µM·h; Cmax [4]: 990 nM |
| 24 | COc1cccc(-c2c(C3CCCCC3)c3ccc(C(=O)NC(C)(C)C(=O)Nc4ccc(/C=C/C(=O)O)cc4)cc3n2C)n1 | – |
| 7 | Cn1c(-c2cnccn2)c(C2CCCCC2)c2ccc(C(=O)NC(C)(C)C(=O)Nc3ccc(/C=C/C(=O)O)cc3)cc21 | – |
